# Test results taken from patent EP0183129A1, “Quinolonecarboxylic acid derivatives” (KYORIN PHARMACEUTICAL CO., LTD., priority 1984, dated 1986).
# Read-outs that look alike come from different tables or passages of the source.
# What was measured:
# M. pneumoniae Mac. = assay: In vitro antibacterial activity against Mycoplasma, MIC; format: cell-based; settings: Mycoplasmoides pneumoniae, 120 h
# Excerpt: Experiment-3 In vitro antibacterial activity against Mycoplasma
# [1] = system: Staphylococcus aureus 209 P; assay: In vitro antibacterial activity, MIC (standard strain); format: cell-based; settings: Staphylococcus aureus, 209P
# P. mirabilis IID 994 = assay: as above; format: cell-based; settings: Proteus mirabilis, IID994
# [2] = system: Morganella morganii IID 602; assay: as above; format: cell-based; settings: IID602; Morganella morganii IID 602; 10^6 cells/ml; standard strain; read-out: MIC
# K. pneumoniae 1-220S = assay: as above; format: cell-based; settings: Klebsiella pneumoniae, 1220S
# [3] = system: Yersinia enterocolitica IID 981; assay: as above; format: cell-based; settings: Yersinia enterocolitica, IID981
# [4] = system: Bacillus subtilis PCI 219; assay: as above; format: cell-based; settings: Bacillus subtilis, PCI219
# S. epidermidis IID 866 = assay: as above; format: cell-based; settings: Staphylococcus epidermidis, IID866
# [5] = system: Fusobacterium varium KYA 8501; assay: as above; format: cell-based; settings: Fusobacterium varium, KYA8501
# S. aureus Smith [6] = assay: as above; format: cell-based, Staphylococcus aureus; settings: Staphylococcus aureus, MIC column of Table 3-1, beside ED50 against S. aureus Smith
# [7] = system: Serratia marcescens IID 618; assay: as above; format: cell-based; settings: Serratia marcescens, IID618
# E. coli ATCC 10536 = assay: as above; format: cell-based; settings: Escherichia coli, ATCC10536
# S. pneumoniae S-4288 = assay: In vivo antibacterial activity against systemic infection in mice; parameters: species or system mice (ICR-S); settings: Streptococcus pneumoniae, S4288, po, read-out: ED50 S. pneumoniae S-4288
# Description: (§1) Experiment-2 In vivo antibacterial activity against systemic infection in mice (ICR-S)
# (§2) The infections were produced by intraperitoneal injection of a suspension of the bacterial culture corresponding to the germ studied. The products were administered orally at an hour after the infection.
# S. aureus Smith [8] = assay: as above; parameters: species or system mice (ICR-S); settings: Staphylococcus aureus, po
# Description: as §1, §2
# E. coli ML4707 = assay: as above; parameters: species or system mice (ICR-S); settings: Escherichia coli, ML4707, po, read-out: ED50 E. coli ML4707
# Description: as §1, §2
# E. coli ML 4707 = assay: In vitro antibacterial activity, MIC (standard strain); format: cell-based; settings: Escherichia coli, ML4707
# [9] = system: S. aureus IID 670 (Terajima); assay: as above; format: cell-based, Staphylococcus aureus; settings: Staphylococcus aureus, IID670
# [10] = system: Salmonella entritidis IID 604; assay: as above; format: cell-based; settings: Salmonella, IID604
# [11] = system: Proteus vulgaris IFO 3167; assay: as above; format: cell-based; settings: Proteus vulgaris, IFO3167
# C. difficile I-E = assay: as above; format: cell-based; settings: Clostridioides difficile
# [12] = system: Citrobacter freundii IID 976; assay: as above; format: cell-based; settings: Citrobacter freundii, IID976
# [13] = system: Klebsiella pneumoniae KY(GN)6445; assay: as above; format: cell-based; settings: Klebsiella pneumoniae
# [14] = system: Escherichia coli NIHJ JC-2; assay: as above; format: cell-based; settings: Escherichia coli, NIHJJC2
# Shigella sonnei IID 969 = assay: as above; format: cell-based; settings: IID969, 10^6 cells/ml
# Description: Experiment-1 In vitro antibacterial activity
# The in vitro antibacterial activity against gram-positive and gram-negative bacteria has been investivated.
# The minimum inhibitory concentration (MIC) was determined in accordance with the method recommended by Japan Society of Chemotherapy.
structure (smiles),measurement,setting,value
"CN(C)[C@@H]1C(O)=C(C(N)=O)C(=O)[C@@]2(O)C(O)=C3C(=O)c4c(O)cccc4[C@@](C)(O)[C@H]3C[C@@H]12 [TC, Tetracycline, reference compound]",MIC,M. pneumoniae Mac.,0.78 µg/mL
"O=C(O)c1cn(C2CC2)c2cc(N3CCNCC3)c(F)cc2c1=O [CFLX, Ciprofloxacin, reference compound]",MIC,[1],0.2 µg/mL
same,MIC,P. mirabilis IID 994,0.025 µg/mL
same,MIC,[2],0.05 µg/mL
same,MIC,K. pneumoniae 1-220S,0.05 µg/mL
same,MIC,[3],0.05 µg/mL
same,MIC,[4],0.05 µg/mL
same,MIC,S. epidermidis IID 866,0.2 µg/mL
same,MIC,[5],12.5 µg/mL
same,MIC,S. aureus Smith [6],0.2 µg/mL
same,MIC,[7],0.05 µg/mL
same,MIC,E. coli ATCC 10536,0.025 µg/mL
same,ED50,S. pneumoniae S-4288,> 100 mg/kg
same,ED50,"S. aureus Smith [8]; read-out: ED50 S. aureus Smith, mice (ICR-S), an hour after intraperitoneal infection, challenge dose 6.0 x 10^5 cfu/mouse",> 25 mg/kg
same,ED50,"S. aureus Smith [8]; read-out: ED50 against S. aureus Smith, mice (ICR-S), an hour after intraperitoneal infection, challenge dose 5.5 x 10^5 cfu/mouse, n=5",25.5 mg/kg
same,ED50,"S. aureus Smith [8]; read-out: ED50 against S. aureus Smith, mice (ICR-S), an hour after intraperitoneal infection, challenge dose 7 x 10^5 cfu/mouse, n=5",12.3 mg/kg
same,ED50,E. coli ML4707,1.8 mg/kg
same,MIC,E. coli ML 4707,0.0125 µg/mL
same,MIC,[9],0.2 µg/mL
same,MIC,[10],0.05 µg/mL
same,MIC,[11],0.0125 µg/mL
same,MIC,C. difficile I-E,12.5 µg/mL
same,MIC,[12],0.025 µg/mL
same,MIC,[13],0.025 µg/mL
same,MIC,[14],0.0125 µg/mL
same,MIC,Shigella sonnei IID 969,0.0125 µg/mL
